Measurements as given in patent publication US12209096B2, “Compounds and compositions for inducing chondrogenesis” (NOVARTIS AG, priority 2017, dated 2025).

Tested on: NHACs
Experiment: calcium flux assay
Assay type: cell-based, human
Details: Homo sapiens; for Emax: read-out: (A) % Efficacy
Method in brief: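 Normal human articular chondrocytes plated at 2000 cells/well and loaded 24 h later with Calcium 5 dye in HBSS/HEPES with 5 mM probenecid for 1 h at room temperature. Test compound added at indicated dose; fluorescence (ex 470–495/em 515–575 nm) recorded on FLIPR before and after addition.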

| EC50 [µM] | Compound | Emax [%] |
| --- | --- | --- |
| > 50 | Cc1cc([C@H]2[C@H]3O[C@H](C[C@@H]3O)[C@@H]2C(=O)Nc2ccc(-c3ccccc3F)c(Cl)c2)ccn1 [Example 78, (1R,2R,3S,4R,5S)—N-(2-chloro-2′-fluoro-[1,1′-biphenyl]-4-yl)-5-hydroxy-3-(2-methylpyridin-4-yl)-7-oxabicyclo[2.2.1]heptane-2-carboxamide] | 70 |
| > 50 | Cc1cc([C@H]2[C@H]3O[C@H](C[C@@H]3O)[C@@H]2C(=O)Nc2cc(Cl)c(Cl)cn2)ccn1 [Example 80, (1R,2R,3S,4R,5S)—N-(4,5-dichloropyridin-2-yl)-5-hydroxy-3-(2-methylpyridin-4-yl)-7-oxabicyclo[2.2.1]heptane-2-carboxamide] | 32 |
| 2.7 | Cc1cc([C@H]2[C@H]3O[C@H](C[C@@H]3O)[C@@H]2C(=O)Nc2cnc(C)c(Cl)c2)ccn1 [Example 81, (1R,2R,3S,4R,5S)—N-(5-chloro-6-methylpyridin-3-yl)-5-hydroxy-3-(2-methylpyridin-4-yl)-7-oxabicyclo[2.2.1]heptane-2-carboxamide] | 34 |
| > 50 | Cc1nccc([C@H]2[C@H]3O[C@H](C[C@@H]3O)[C@@H]2C(=O)Nc2ccc(Cl)c(Cl)c2)n1 [Example 82, (1R,2R,3S,4R,5S)—N-(3,4-dichlorophenyl)-5-hydroxy-3-(2-methylpyrimidin-4-yl)-7-oxabicyclo[2.2.1]heptane-2-carboxamide] | 74 |
| > 50 | Cc1cc([C@H]2[C@H]3O[C@H](C[C@@H]3O)[C@@H]2C(=O)Nc2cccc(C(F)(F)F)c2)ccn1 [Example 85, (1R,2R,3S,4R,5S)-5-hydroxy-3-(2-methylpyridin-4-yl)-N-(3-(trifluoromethyl)phenyl)-7-oxabicyclo[2.2.1]heptane-2-carboxamide] | 56 |
| > 50 | Cc1cc([C@@H]2[C@@H](C(=O)Nc3cccc(C(F)(F)F)c3)[C@@H]3O[C@H]2C[C@H]3O)ccn1 [Example 86, (1S,2R,3S,4S,6R)-6-hydroxy-3-(2-methylpyridin-4-yl)-N-(3-(trifluoromethyl)phenyl)-7-oxabicyclo[2.2.1]heptane-2-carboxamide] | 38 |
| > 50 | O=C(Nc1cnc(Cl)c(Cl)c1)[C@@H]1[C@@H](c2ccncc2)[C@H]2O[C@@H]1C[C@@H]2O [Example 87, (1R,2R,3S,4R,5S)—N-(5,6-dichloropyridin-3-yl)-5-hydroxy-3-(pyridin-4-yl)-7-oxabicyclo[2.2.1]heptane-2-carboxamide] | 14 |
| > 50 | O=C(Nc1cccc(C(F)(F)F)c1)[C@@H]1[C@@H](c2ccncc2)[C@H]2O[C@@H]1C[C@@H]2O [Example 88, (1R,2R,3S,4R,5S)-5-hydroxy-3-(pyridin-4-yl)-N-(3-(trifluoromethyl)phenyl)-7-oxabicyclo[2.2.1]heptane-2-carboxamide] | 27 |
| > 50 | O=C(Nc1cccc(C(F)(F)F)c1)[C@H]1[C@@H]2O[C@@H](C[C@H]2O)[C@@H]1c1ccncc1 [Example 89, (1S,2R,3S,4S,6R)-6-hydroxy-3-(pyridin-4-yl)-N-(3-(trifluoromethyl)phenyl)-7-oxabicyclo[2.2.1]heptane-2-carboxamide] | 0 |
| 4.4 | O=C(Nc1cnc(Cl)c(Cl)c1)[C@@H]1[C@@H](c2ccnc(F)c2F)[C@H]2O[C@@H]1C[C@@H]2O [Example 91, (1R,2R,3S,4R,5S)—N-(5,6-dichloropyridin-3-yl)-3-(2,3-difluoropyridin-4-yl)-5-hydroxy-7-oxabicyclo[2.2.1]heptane-2-carboxamide] | 66 |
| 14 | Cc1cc([C@H]2[C@H]3O[C@H](C[C@H]3F)[C@@H]2C(=O)Nc2cccc(C(F)(F)F)c2)ccn1 [Example 96, (1R,2R,3S,4R,5R)-5-fluoro-3-(2-methylpyridin-4-yl)-N-(3-(trifluoromethyl)phenyl)-7-oxabicyclo[2.2.1]heptane-2-carboxamide] | 281 |
| > 50 | COc1ccc(NC(=O)[C@@H]2[C@@H](c3ccnc(C)c3)[C@H]3O[C@@H]2C[C@H]3F)cn1 [Example 97, (1R,2R,3S,4R,5R)-5-fluoro-N-(6-methoxypyridin-3-yl)-3-(2-methylpyridin-4-yl)-7-oxabicyclo[2.2.1]heptane-2-carboxamide] | 2 |
| 21 | Cc1cc([C@H]2[C@H]3O[C@H](C[C@H]3F)[C@@H]2C(=O)Nc2cnc(Cl)c(Cl)c2)ccn1 [Example 98, (1R,2R,3S,4R,5R)—N-(5,6-dichloropyridin-3-yl)-5-fluoro-3-(2-methylpyridin-4-yl)-7-oxabicyclo[2.2.1]heptane-2-carboxamide] | 404 |
| 18 | Cc1cc([C@H]2[C@H]3O[C@H](C[C@H]3F)[C@@H]2C(=O)Nc2cccc(OC(F)(F)F)c2)ccn1 [Example 99, (1R,2R,3S,4R,5R)-5-fluoro-3-(2-methylpyridin-4-yl)-N-(3-(trifluoromethoxy)phenyl)-7-oxabicyclo[2.2.1]heptane-2-carboxamide] | 383 |
| 18 | Cc1cc([C@H]2[C@H]3O[C@H](C[C@H]3F)[C@@H]2C(=O)Nc2ccc(OC(F)(F)F)c(F)c2)ccn1 [Example 100, (1R,2R,3S,4R,5R)-5-fluoro-N-(3-fluoro-4-(trifluoromethoxy)phenyl)-3-(2-methylpyridin-4-yl)-7-oxabicyclo[2.2.1]heptane-2-carboxamide] | 310 |
| 29 | Cc1cc([C@H]2[C@H]3O[C@H](C[C@H]3F)[C@@H]2C(=O)Nc2ccn(C)n2)ccn1 [Example 101, (1R,2R,3S,4R,5R)-5-fluoro-N-(1-methyl-1H-pyrazol-3-yl)-3-(2-methylpyridin-4-yl)-7-oxabicyclo[2.2.1]heptane-2-carboxamide] | 62 |
| 2.1 | Cc1cc([C@H]2[C@H]3O[C@H](C[C@H]3F)[C@@H]2C(=O)Nc2ncc(C)s2)ccn1 [Example 102, (1R,2R,3S,4R,5R)-5-fluoro-3-(2-methylpyridin-4-yl)-N-(5-methylthiazol-2-yl)-7-oxabicyclo[2.2.1]heptane-2-carboxamide] | 84 |
| 14 | COc1cc([C@@H]2[C@@H](C(=O)Nc3ccc(Cl)c(Cl)c3)[C@@H]3O[C@H]2C[C@H]3F)ccn1 [Example 104, (1S,2R,3S,4S,6R)—N-(3,4-dichlorophenyl)-6-fluoro-3-(2-methoxypyridin-4-yl)-7-oxabicyclo[2.2.1]heptane-2-carboxamide] | 96 |
| 24 | Cc1cc([C@@H]2[C@@H](C(=O)Nc3ccc(Cl)c(Cl)c3)[C@@H]3O[C@H]2C[C@H]3F)ccn1 [Example 106, (1S,2R,3S,4S,6R)—N-(3,4-dichlorophenyl)-6-fluoro-3-(2-methylpyridin-4-yl)-7-oxabicyclo[2.2.1]heptane-2-carboxamide] | 84 |
| 12 | Cc1cc([C@H]2[C@H]3O[C@H](C[C@@H]3F)[C@@H]2C(=O)Nc2cccc(C(F)(F)F)c2)ccn1 [Example 107, (1R,2R,3S,4R,5S)-5-fluoro-3-(2-methylpyridin-4-yl)-N-(3-(trifluoromethyl)phenyl)-7-oxabicyclo[2.2.1]heptane-2-carboxamide] | 139 |
| 27 | Cc1cc([C@@H]2[C@@H](C(=O)Nc3cccc(C(F)(F)F)c3)[C@@H]3O[C@H]2C[C@H]3F)ccn1 [Example 108, (1S,2R,3S,4S,6R)-6-fluoro-3-(2-methylpyridin-4-yl)-N-(3-(trifluoromethyl)phenyl)-7-oxabicyclo[2.2.1]heptane-2-carboxamide] | 137 |
| 28 | Cc1cc([C@H]2[C@H]3O[C@H](C[C@@H]3F)[C@@H]2C(=O)Nc2cnc(Cl)c(Cl)c2)ccn1 [Example 109, (1R,2R,3S,4R,5S)—N-(5,6-dichloropyridin-3-yl)-5-fluoro-3-(2-methylpyridin-4-yl)-7-oxabicyclo[2.2.1]heptane-2-carboxamide] | 164 |
| 28 | Cc1cc([C@@H]2[C@@H](C(=O)Nc3cnc(Cl)c(Cl)c3)[C@@H]3O[C@H]2C[C@H]3F)ccn1 [Example 110, (1S,2R,3S,4S,6R)—N-(5,6-dichloropyridin-3-yl)-6-fluoro-3-(2-methylpyridin-4-yl)-7-oxabicyclo[2.2.1]heptane-2-carboxamide] | 199 |
| 28 | O=C(Nc1ccc(Cl)c(Cl)c1)[C@@H]1[C@@H](c2ccnc(F)c2)[C@H]2O[C@@H]1C[C@@H]2F [Example 111, (1R,2R,3S,4R,5S)—N-(3,4-dichlorophenyl)-5-fluoro-3-(2-fluoropyridin-4-yl)-7-oxabicyclo[2.2.1]heptane-2-carboxamide] | 87 |
| 28 | O=C(Nc1ccc(Cl)c(Cl)c1)[C@H]1[C@@H]2O[C@@H](C[C@H]2F)[C@@H]1c1ccnc(F)c1 [Example 112, (1S,2R,3S,4S,6R)—N-(3,4-dichlorophenyl)-6-fluoro-3-(2-fluoropyridin-4-yl)-7-oxabicyclo[2.2.1]heptane-2-carboxamide] | 99 |
| 30 | Nc1ncc([C@H]2[C@H]3O[C@H](C[C@@H]3F)[C@@H]2C(=O)Nc2ccc(Cl)c(Cl)c2)cn1 [Example 113, (1R,2R,3S,4R,5S)-3-(2-aminopyrimidin-5-yl)-N-(3,4-dichlorophenyl)-5-fluoro-7-oxabicyclo[2.2.1]heptane-2-carboxamide] | 103 |
| 30 | Nc1ncc([C@@H]2[C@@H](C(=O)Nc3ccc(Cl)c(Cl)c3)[C@@H]3O[C@H]2C[C@H]3F)cn1 [Example 114, (1S,2R,3S,4S,6R)-3-(2-aminopyrimidin-5-yl)-N-(3,4-dichlorophenyl)-6-fluoro-7-oxabicyclo[2.2.1]heptane-2-carboxamide] | 127 |
| 33 | Cc1ccc([C@H]2[C@H]3O[C@H](C[C@@H]3F)[C@@H]2C(=O)Nc2ccc(Cl)c(Cl)c2)cn1 [Example 115, (1R,2R,3S,4R,5S)—N-(3,4-dichlorophenyl)-5-fluoro-3-(6-methylpyridin-3-yl)-7-oxabicyclo[2.2.1]heptane-2-carboxamide] | 49 |
